The values below are quoted from earlier work in patent US6921530B1, “Low dose IL-2 for potentiation of immunity” (Cornell Research Foundation, Inc., priority 1999, dated 2005).

“And” between values parts separate entries of the source, which are not always exact repeats. Equal entries are not always repeated.

In this data set the test system is HCV. As to conditions: cited from earlier work.

Interferon-α [IFN-α]: the “sustained response, % of patients” value (3×10^6 units s.c. three times a week over one year, monotherapy) was 35% and 28-43%. Besides, the “initial delay before decline of plasma HCV viral load” value (daily IFN therapy) was 9 h.
